Data from ChEMBL document CHEMBL6096697, “Structure-Guided Discovery of Novel N4-(Substituted Thiazol-2-yl)-N2-(4-Substituted phenyl)pyrimidine-2,4-Diamines as Potent CDK2 and CDK9 Dual Inhibitors with High Oral Bioavailability” (J Med Chem, 2025).

Experiments:
[1] = Clearance in Sprague-Dawley rat at 2 mg/kg, iv measured for 36 hrs by MRM analysis; assay type: ADME, organism-based; settings: in vivo
[2] = test system: HeLa; assay: Induction of cell cycle arrest in human HeLa cells assessed as accumulation at S phase at 0.9 uM incubated for 24 hrs by PI staining based flow cytometry (reference value: 17.84 +/- 1.89 %); assay type: functional
[3] = test system: HeLa; assay: Induction of cell cycle arrest in human HeLa cells assessed as accumulation at G2/M phase at 3.6 uM incubated for 24 hrs by PI staining based flow cytometry (reference value: 24.6 +/- 1.11 %); assay type: functional
[4] = test system: HCT-116; assay: Induction of apoptosis in human HCT-116 cells assessed as late apoptotic cells at 0.4 uM incubated for 24 hrs by PI staining based flow cytometry (reference value: 1.11 %); assay type: functional
[5] = AUC (0 to infinity) in Sprague-Dawley rat at 2 mg/kg, iv measured for 36 hrs by MRM analysis; assay type: ADME, organism-based; settings: in vivo
[6] = test system: HCT-116; assay: Induction of cell cycle arrest in human HCT-116 cells assessed as accumulation at G2/M phase at 0.2 uM incubated for 24 hrs by PI staining based flow cytometry (reference value: 20.6 +/- 3.38 %); assay type: functional
[7] = test system: HCT-116; assay: Induction of cell cycle arrest in human HCT-116 cells assessed as accumulation at sub-G1 phase at 0.8 uM incubated for 24 hrs by PI staining based flow cytometry (reference value: 2.45 +/- 0.49 %); assay type: functional
[8] = test system: HeLa; assay: Induction of cell cycle arrest in human HeLa cells assessed as accumulation at G2/M phase at 1.8 uM incubated for 24 hrs by PI staining based flow cytometry (reference value: 24.6 +/- 1.11 %); assay type: functional
[9] = MRT (0 to infinity) in Sprague-Dawley rat at 10 mg/kg, po measured for 36 hrs by MRM analysis; assay type: ADME, organism-based; settings: in vivo
[10] = test system: HCT-116; assay: Induction of apoptosis in human HCT-116 cells assessed as necrotic cells at 0.2 uM incubated for 24 hrs by PI staining based flow cytometry (reference value: 18.9 %); assay type: functional
[11] = test system: HeLa; assay: Induction of cell cycle arrest in human HeLa cells assessed as accumulation at sub-G1 phase at 3.6 uM incubated for 24 hrs by PI staining based flow cytometry (reference value: 1.89 +/- 0.56 %); assay type: functional
[12] = test system: MCF7; assay: Antiproliferative activity against human MCF7 cells assessed as cell growth inhibition incubated for 48 hrs by MTT assay; assay type: functional, cell-based; settings: MCF7, 48 h
[13] = test system: HeLa; assay: Induction of apoptosis in human HeLa cells assessed as necrotic cells at 1.8 uM incubated for 24 hrs by PI staining based flow cytometry (reference value: 25.5 %); assay type: functional
[14] = test system: U-87 MG; assay: Antiproliferative activity against human U-87 MG cells assessed as cell growth inhibition incubated for 48 hrs by MTT assay; assay type: functional, cell-based, U-87MG ATCC
[15] = Antiproliferative activity against HEK293 cells assessed as cell growth inhibition incubated for 48 hrs by MTT assay; assay type: toxicity, cell-based; settings: human
[16] = test system: HCT-116; assay: Induction of cell cycle arrest in human HCT-116 cells assessed as accumulation at S phase at 0.8 uM incubated for 24 hrs by PI staining based flow cytometry (reference value: 20.82 +/- 1.24 %); assay type: functional
[17] = Tmax in Sprague-Dawley rat at 10 mg/kg, po measured for 36 hrs by MRM analysis; assay type: ADME, organism-based; settings: in vivo
[18] = test system: HeLa; assay: Antiproliferative activity against human HeLa cells assessed as cell growth inhibition incubated for 48 hrs by MTT assay; assay type: functional, cell-based
[19] = test system: C6; assay: Antitumor activity against rat C6 cells allografted in Sprague-Dawley rat at 70 mg/kg/day, po treated for 2 weeks relative to control; assay type: functional; settings: C6, 336 h, read-out: TGI
[20] = test system: HCT-116; assay: Induction of cell cycle arrest at G2/M phase in human HCT-116 cells assessed as decrease in cyclin B1 level at 0.4 uM by Western blot analysis; assay type: functional, cell-based; settings: time <= 48.0 hrs
[21] = test system: HeLa; assay: Induction of cell cycle arrest in human HeLa cells assessed as accumulation at S phase at 3.6 uM incubated for 24 hrs by PI staining based flow cytometry (reference value: 17.84 +/- 1.89 %); assay type: functional
[22] = test system: HCT-116; assay: Induction of cell cycle arrest in human HCT-116 cells assessed as accumulation at S phase at 0.4 uM incubated for 24 hrs by PI staining based flow cytometry (reference value: 20.82 +/- 1.24 %); assay type: functional
[23] = test system: HCT-116; assay: Cytotoxicity against human HCT-116 cells assessed as cell growth inhibition incubated for 48 hrs by MTT assay; assay type: functional, cell-based; settings: HCT-116, 48 h
[24] = target: Cyclin-dependent kinase 2 (Homo sapiens) (UniProt P24941); assay: Inhibition of CDK2 in human HCT-116 cells assessed as reduction in Rb phosphorylation at Ser807/811 incubated for 24 hr s by Western blot analysis; assay type: cell-based; settings: dose <= 0.8 µM
[25] = Toxicity in Balb/c-nu nude mouse xenografted with human HCT-116 cells assessed as body weight loss at 35 to 70 mg/kg/day, po treated for 30 days; assay type: organism-based; settings: in vivo, 720 h, dose 35-70 mg/kg/day, time 30 day
[26] = Half life in Sprague-Dawley rat at 10 mg/kg, po measured for 36 hrs by MRM analysis; assay type: ADME, organism-based; settings: in vivo
[27] = test system: HCT-116; assay: Induction of apoptosis in human HCT-116 cells assessed as late apoptotic cells at 0.8 uM incubated for 24 hrs by PI staining based flow cytometry (reference value: 1.11 %); assay type: functional
[28] = test system: HeLa; assay: Induction of apoptosis in human HeLa cells assessed as early apoptotic cells at 3.6 uM incubated for 24 hrs by PI staining based flow cytometry (reference value: 0.8 %); assay type: functional
[29] = Apparent volume of distribution in Sprague-Dawley rat at 2 mg/kg, iv measured for 36 hrs by MRM analysis; assay type: ADME, organism-based; settings: in vivo, read-out: Vz
[30] = test system: HCT-116; assay: Induction of apoptosis in human HCT-116 cells assessed as necrotic cells at 0.8 uM incubated for 24 hrs by PI staining based flow cytometry (reference value: 18.9 %); assay type: functional
[31] = test system: HeLa; assay: Induction of cell cycle arrest in human HeLa cells assessed as accumulation at G2/M phase at 0.9 uM incubated for 24 hrs by PI staining based flow cytometry (reference value: 24.6 +/- 1.11 %); assay type: functional
[32] = test system: HeLa; assay: Induction of apoptosis in human HeLa cells assessed as late apoptotic cells at 0.9 uM incubated for 24 hrs by PI staining based flow cytometry (reference value: 3.85 %); assay type: functional
[33] = test system: HeLa; assay: Induction of cell cycle arrest in human HeLa cells assessed as accumulation at G1/G0 phase at 0.9 uM incubated for 24 hrs by PI staining based flow cytometry (reference value: 57.63 +/- 1.7 %); assay type: functional
[34] = Toxicity in Balb/c-nu nude mouse xenografted with human HCT-116 cells assessed as toxicity in kidney at 35 to 70 mg/kg/day, po treated for 30 days by H and E staining based analysis; assay type: organism-based; settings: in vivo, 720 h, dose 35-70 mg/kg/day, time 30 day
[35] = AUC (0 to infinity) in Sprague-Dawley rat at 10 mg/kg, po measured for 36 hrs by MRM analysis; assay type: ADME, organism-based; settings: in vivo
[36] = Toxicity in Balb/c-nu nude mouse xenografted with human HCT-116 cells assessed as toxicity in heart at 35 to 70 mg/kg/day, po treated for 30 days by H and E staining based analysis; assay type: organism-based; settings: in vivo, 720 h, dose 35-70 mg/kg/day, time 30 day

## Cc1cnc(Nc2ccc(S(N)(=O)=O)cc2)nc1Nc1nccs1
[1]
  CL: 67.9 L/h/kg
[2]
  Activity: 21.67%
[3]
  Activity: 44.19%
[4]
  Activity: 22.9%
[5]
  AUC(0-inf): 33.7 ng·h/mL
[6]
  Activity: 24.4%
[7]
  Activity: 1.71%
[8]
  Activity: 30.58%
[9]
  MRT inf: 7 h
[10]
  Activity: 3.6%
[11]
  Activity: 19.5%
[12]
  IC50: 3.64 µM
[13]
  Activity: 0.22%
[14]
  IC50: 1010 nM
[15]
  IC50 at 48 h: 90.1 µM
[16]
  Activity: 20.18%
[17]
  Tmax: 30 min
[18]
  IC50: 1840 nM
[19]
  inhibition in vivo at 70 mg/kg/day: 86%
[20]
  Activity: Time-dependent-effect
[21]
  Activity: 17.55%
[22]
  Activity: 22.25%
[23]
  IC50: 462 nM
[24]
  inhibition: Dose-dependent-effect
[25]
  Activity: Non-toxic
[26]
  half-life: 240 min
[27]
  Activity: 27.7%
[28]
  Activity: 61%
[29]
  Vd: 275 L/kg
[30]
  Activity: 4%
[31]
  Activity: 26.41%
[32]
  Activity: 5%
[33]
  Activity: 52.88%
[34]
  Activity: Non-toxic
[35]
  AUC(0-inf): 146 ng·h/mL
[36]
  Activity: Non-toxic
